Data: patent US11884661B2, “3-substituted propionic acids as αV integrin inhibitors” (BRISTOL-MYERS SQUIBB COMPANY, priority 2016, dated 2024)

Columns and labels:
human αVβ8 = human αVβ8 (Homo sapiens, UniProt P06756+P26012); experiment: human αVβ8 HTRF binding assay
Procedure: (§1) All binding assays used the HTRF (homogeneous time resolved fluorescence) technology from Cisbio International, therefore all assays are described as HTRF binding assays. The assay results for the Examples are listed above together with the characterization data. The HTRF binding assays are established for the following integrins: human αVβ6, human αVβ1, human αVβ3, human αVβ5, and human αVβ8. All assays used the following assay buffer: 20 mM Tris, pH 7.4, 1 mM MgCl2, 1 mM MnCl2, 0.01% Tween 20, and 0.01% BSA. Alternatively, a SPA-based assay was used for evaluation of receptor binding. […]

human αVβ3 = human αVβ3 (Homo sapiens, UniProt P05106+P06756); experiment: human αVβ3 HTRF binding assay
Procedure: (§2) All binding assays used the HTRF (homogeneous time resolved fluorescence) technology from Cisbio International, therefore all assays are described as HTRF binding assays. The assay results for the Examples are listed above together with the characterization data. The HTRF binding assays are established for the following integrins: human αVβ6, human αVβ1, human αVβ3, human αVβ5, and human αVβ8. All assays used the following assay buffer: 20 mM Tris, pH 7.4, 1 mM MgCl2, 1 mM MnCl2, 0.01% Tween 20, and 0.01% BSA. Alternatively, a SPA-based assay was used for evaluation of receptor binding.
(§3) The following describes the components and a representative procedure for the human αVβ6 HTRF binding assay: Recombinant human αVβ6 Integrin (R & D systems, 3817-AV) was biotinylated. Biotinylated human αVβ6 Integrin was added to assay vessel at a final concentration of 1.25 nM. FITC-conjugated fibronectin (Cytoskeleton, FNR02) was then added at the final concentration of 5 nM. The mixture was centrifuged at 600 rpm for three minutes using Thermo Fisher Heraeus Multifuge X3 centrifuge and then incubated at RT for an hour. Streptavidin Terbium (Cisbio international 610STLB) was then added at the final concentration of 0.625 nM. The resulting mixture was centrifuged at 600 rpm for three minutes using Thermo Fisher Heraeus Multifuge X3 centrifuge and then incubated at room temperature overnight in dark before reading HTRF signals.

human αVβ6 = biological target: T1, human αVβ6 (Homo sapiens, UniProt P06756+P18564); experiment: human αVβ6 HTRF binding assay; details: recombinant human αVβ6 integrin, FITC-conjugated fibronectin
T1 construct: purchased R & D systems 3817-AV
In short: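 Biotinylated recombinant αVβ6 (1.25 nM final) incubated with FITC-fibronectin (5 nM) 1 h at RT, then streptavidin-terbium (0.625 nM) added and incubated overnight at RT in the dark before HTRF read. Buffer: 20 mM Tris pH 7.4, 1 mM MgCl2, 1 mM MnCl2, 0.01% Tween 20, 0.01% BSA.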

human αVβ5 = human αVβ5 (Homo sapiens, UniProt P06756+P18084); experiment: human αVβ5 HTRF binding assay
Procedure: as §1

human αVβ1 = human αVβ1 (Homo sapiens, UniProt P05556+P06756); experiment: human αVβ1 HTRF binding assay
Procedure: as §2, §3

Sequence of human αVβ1 (P06756 31-992 limits assumed): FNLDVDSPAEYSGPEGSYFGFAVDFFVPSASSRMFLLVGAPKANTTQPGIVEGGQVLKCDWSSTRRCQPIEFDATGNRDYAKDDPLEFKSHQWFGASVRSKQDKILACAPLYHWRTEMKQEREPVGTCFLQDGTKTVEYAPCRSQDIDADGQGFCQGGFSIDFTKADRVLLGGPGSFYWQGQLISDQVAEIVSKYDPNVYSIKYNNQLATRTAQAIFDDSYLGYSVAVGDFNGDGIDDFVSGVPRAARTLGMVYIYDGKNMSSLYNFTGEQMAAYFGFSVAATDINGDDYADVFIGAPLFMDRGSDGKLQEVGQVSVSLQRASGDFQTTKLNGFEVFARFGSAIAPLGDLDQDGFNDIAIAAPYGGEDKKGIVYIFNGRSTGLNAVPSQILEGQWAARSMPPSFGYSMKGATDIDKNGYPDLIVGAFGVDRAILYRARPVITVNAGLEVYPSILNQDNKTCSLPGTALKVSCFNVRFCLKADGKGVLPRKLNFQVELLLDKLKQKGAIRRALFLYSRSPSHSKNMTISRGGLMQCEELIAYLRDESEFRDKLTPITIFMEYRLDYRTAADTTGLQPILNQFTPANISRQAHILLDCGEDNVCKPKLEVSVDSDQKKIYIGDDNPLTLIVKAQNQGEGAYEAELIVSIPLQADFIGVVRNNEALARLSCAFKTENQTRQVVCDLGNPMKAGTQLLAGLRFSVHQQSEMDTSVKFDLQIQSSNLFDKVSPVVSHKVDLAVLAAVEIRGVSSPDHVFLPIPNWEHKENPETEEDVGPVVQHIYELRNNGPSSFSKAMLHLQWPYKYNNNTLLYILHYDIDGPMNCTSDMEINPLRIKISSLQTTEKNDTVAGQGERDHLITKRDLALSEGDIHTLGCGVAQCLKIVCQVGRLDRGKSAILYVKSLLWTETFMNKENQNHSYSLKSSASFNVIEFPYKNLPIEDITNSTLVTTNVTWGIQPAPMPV
Sequence of human αVβ1 (P05556 21-728 limits assumed): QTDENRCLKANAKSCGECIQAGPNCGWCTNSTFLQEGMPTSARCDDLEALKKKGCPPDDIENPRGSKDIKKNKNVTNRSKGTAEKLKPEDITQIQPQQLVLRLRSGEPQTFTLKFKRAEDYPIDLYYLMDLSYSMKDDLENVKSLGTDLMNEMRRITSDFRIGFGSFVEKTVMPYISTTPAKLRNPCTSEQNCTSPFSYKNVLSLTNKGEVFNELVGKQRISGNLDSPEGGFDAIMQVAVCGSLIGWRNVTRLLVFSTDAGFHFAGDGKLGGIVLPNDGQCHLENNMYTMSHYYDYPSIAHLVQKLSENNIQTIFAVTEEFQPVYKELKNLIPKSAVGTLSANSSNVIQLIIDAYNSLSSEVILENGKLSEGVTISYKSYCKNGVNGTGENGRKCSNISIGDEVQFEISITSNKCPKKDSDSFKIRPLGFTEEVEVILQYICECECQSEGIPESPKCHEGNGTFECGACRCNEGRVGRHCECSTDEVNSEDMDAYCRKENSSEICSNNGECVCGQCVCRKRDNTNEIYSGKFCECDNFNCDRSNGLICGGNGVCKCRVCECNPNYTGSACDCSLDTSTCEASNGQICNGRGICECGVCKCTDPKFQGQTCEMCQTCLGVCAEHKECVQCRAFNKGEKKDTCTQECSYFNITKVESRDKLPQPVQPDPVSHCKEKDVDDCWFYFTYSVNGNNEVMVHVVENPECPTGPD
Sequence of human αVβ8 (P06756 31-992 limits assumed): as the sequence (P06756 31-992 limits assumed) above
Sequence of human αVβ8 (P26012 43-684 limits assumed): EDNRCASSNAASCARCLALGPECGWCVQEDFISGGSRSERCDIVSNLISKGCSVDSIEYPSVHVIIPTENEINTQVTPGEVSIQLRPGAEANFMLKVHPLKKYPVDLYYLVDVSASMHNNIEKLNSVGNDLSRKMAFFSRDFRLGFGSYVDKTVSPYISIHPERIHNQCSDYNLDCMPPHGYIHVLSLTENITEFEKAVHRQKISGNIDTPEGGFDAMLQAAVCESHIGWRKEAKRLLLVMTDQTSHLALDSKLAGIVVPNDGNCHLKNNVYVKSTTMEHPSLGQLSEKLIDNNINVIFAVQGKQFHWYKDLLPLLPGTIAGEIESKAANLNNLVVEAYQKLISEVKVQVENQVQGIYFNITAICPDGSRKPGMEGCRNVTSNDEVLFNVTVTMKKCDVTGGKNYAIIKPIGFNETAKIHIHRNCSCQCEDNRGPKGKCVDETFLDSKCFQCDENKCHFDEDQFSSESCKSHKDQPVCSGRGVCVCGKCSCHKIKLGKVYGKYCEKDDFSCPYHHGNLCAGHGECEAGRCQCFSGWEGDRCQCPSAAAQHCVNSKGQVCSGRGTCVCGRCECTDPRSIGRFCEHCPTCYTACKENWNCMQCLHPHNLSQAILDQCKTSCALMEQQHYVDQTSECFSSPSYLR
T1 sequence (P06756 31-992 limits assumed): as the sequence (P06756 31-992 limits assumed) above
T1 sequence (P18564 22-707 limits assumed): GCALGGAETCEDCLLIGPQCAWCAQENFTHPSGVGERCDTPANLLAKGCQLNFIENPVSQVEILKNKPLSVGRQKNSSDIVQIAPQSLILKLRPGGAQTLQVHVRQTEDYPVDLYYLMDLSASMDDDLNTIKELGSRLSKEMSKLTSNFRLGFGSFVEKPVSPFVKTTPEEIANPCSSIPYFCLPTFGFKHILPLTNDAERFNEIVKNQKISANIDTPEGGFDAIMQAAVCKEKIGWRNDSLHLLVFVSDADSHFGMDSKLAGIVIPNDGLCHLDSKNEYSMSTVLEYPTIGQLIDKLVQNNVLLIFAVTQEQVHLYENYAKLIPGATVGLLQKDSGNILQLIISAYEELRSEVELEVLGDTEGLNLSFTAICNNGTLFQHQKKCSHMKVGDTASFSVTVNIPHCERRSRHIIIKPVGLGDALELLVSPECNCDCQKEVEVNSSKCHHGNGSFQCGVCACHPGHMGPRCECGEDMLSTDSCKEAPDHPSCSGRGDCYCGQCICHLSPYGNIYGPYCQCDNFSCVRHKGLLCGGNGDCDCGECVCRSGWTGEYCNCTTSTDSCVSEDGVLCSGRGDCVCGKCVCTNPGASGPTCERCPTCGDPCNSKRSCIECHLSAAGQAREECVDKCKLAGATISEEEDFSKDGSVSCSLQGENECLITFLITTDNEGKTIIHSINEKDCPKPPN
Sequence of human αVβ3 (P06756 31-992 limits assumed): as the sequence (P06756 31-992 limits assumed) above
Sequence of human αVβ3 (P05106 27-718 limits assumed): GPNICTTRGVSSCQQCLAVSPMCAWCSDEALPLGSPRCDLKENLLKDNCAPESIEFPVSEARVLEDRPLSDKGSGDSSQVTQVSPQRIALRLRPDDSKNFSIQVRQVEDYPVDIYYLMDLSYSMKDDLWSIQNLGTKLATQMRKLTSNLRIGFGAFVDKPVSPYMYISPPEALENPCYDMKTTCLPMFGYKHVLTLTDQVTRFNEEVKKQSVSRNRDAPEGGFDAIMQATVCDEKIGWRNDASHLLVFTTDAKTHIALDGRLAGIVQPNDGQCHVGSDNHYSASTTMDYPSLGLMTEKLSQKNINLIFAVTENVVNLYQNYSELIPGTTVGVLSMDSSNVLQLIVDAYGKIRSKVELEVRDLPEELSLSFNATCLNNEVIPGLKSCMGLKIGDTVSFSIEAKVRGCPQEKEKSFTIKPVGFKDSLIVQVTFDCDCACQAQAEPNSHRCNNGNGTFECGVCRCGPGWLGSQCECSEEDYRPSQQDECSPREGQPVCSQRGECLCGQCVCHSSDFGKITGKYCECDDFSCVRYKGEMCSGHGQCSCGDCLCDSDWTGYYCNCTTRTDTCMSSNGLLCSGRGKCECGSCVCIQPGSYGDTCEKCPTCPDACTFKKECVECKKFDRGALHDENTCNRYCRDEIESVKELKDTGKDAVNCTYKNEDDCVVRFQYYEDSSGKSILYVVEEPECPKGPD
Sequence of human αVβ5 (P06756 31-992 limits assumed): as the sequence (P06756 31-992 limits assumed) above
Sequence of human αVβ5 (P18084 24-719 limits assumed): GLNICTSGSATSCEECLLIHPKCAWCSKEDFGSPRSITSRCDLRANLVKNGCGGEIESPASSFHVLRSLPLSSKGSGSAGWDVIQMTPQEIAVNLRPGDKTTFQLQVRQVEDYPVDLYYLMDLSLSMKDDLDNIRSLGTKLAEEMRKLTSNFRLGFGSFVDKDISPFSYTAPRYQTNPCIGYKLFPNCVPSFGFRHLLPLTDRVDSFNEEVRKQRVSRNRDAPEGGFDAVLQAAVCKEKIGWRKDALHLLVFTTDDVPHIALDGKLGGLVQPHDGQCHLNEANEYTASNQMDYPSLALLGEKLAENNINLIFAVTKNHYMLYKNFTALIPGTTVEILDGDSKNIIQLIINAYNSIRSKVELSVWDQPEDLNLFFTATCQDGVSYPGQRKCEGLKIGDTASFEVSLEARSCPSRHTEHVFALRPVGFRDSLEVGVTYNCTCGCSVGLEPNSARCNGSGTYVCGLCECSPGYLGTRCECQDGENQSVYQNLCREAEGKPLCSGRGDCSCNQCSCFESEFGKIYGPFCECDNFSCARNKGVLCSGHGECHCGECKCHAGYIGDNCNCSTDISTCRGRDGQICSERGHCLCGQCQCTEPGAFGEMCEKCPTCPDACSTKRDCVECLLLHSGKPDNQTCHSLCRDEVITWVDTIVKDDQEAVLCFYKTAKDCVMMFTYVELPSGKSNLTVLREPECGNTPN

| Compound | IC50 (human αVβ8) | IC50 (human αVβ3) | IC50 (human αVβ6) | IC50 (human αVβ5) | IC50 (human αVβ1) |
| --- | --- | --- | --- | --- | --- |
| COc1ccc(C(CC(=O)O)n2ccc(CCCc3ccc4c(n3)NCCC4)n2)cn1 (single isomer, unassigned) [Example 3, 3-(6-Methoxypyridin-3-yl)-3-(3-(3-(5,6,7,8-tetrahydro-1,8-naphthyridin-2-yl)propyl)-1H-pyrazol-1-yl)propanoic acid] | 1120 nM | 3.2 nM | 3.2 nM | 11 nM | 65 nM |
| COc1ccc(C(CC(=O)O)c2nc(CCCCc3ccc4c(n3)NCCC4)cs2)cn1 (single isomer, unassigned) [Example 14, 3-(6-Methoxypyridin-3-yl)-3-(4-(4-(5,6,7,8-tetrahydro-1,8-naphthyridin-2-yl)butyl)thiazol-2-yl)propanoic acid] | 510 nM | 1.9 nM | 2.1 nM | 11 nM | 241 nM |
| COc1ccc(C(CC(=O)O)c2nc(CCCCc3ccc4c(n3)NCCC4)cs2)cc1F (single isomer, unassigned) [Example 37, 3-(3-Fluoro-4-methoxyphenyl)-3-(4-(4-(5,6,7,8-tetrahydro-1,8-naphthyridin-2-yl)butyl)thiazol-2-yl)propanoic acid] | 870 nM | 1.7 nM | 2 nM | 1.1 nM | 160 nM |
| COc1ccc([C@H](CC(=O)O)N2CCC(CCCc3ccc4c(n3)NCCC4)C2)cn1 (stereo partly drawn) [Example 21, (3S)-3-(6-Methoxypyridin-3-yl)-3-(3-(3-(5,6,7,8-tetrahydro-1,8-naphthyridin-2-yl)propyl)pyrrolidin-1-yl)propanoic acid] | 180 nM | 4.4 nM | 1.4 nM | 10 nM | 6500 nM |
